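Grown in 96-well plates, cells were treated for 48 hours with each compound at five concentrations. Insufficient inhibition: endpoint recorded as highest concentration tested. TGI is the concentration that stops growth completely.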
Experiments:
Assay in all cases: NCI anticancer screen, dose series, 48 h
HCT-15 colon = system: HCT-15 colon
HT29 colon = system: HT29 colon
HCT-116 colon = system: HCT-116 colon
786-0 renal = system: 786-0 renal
MALME-3M melanoma = system: MALME-3M melanoma
UO-31 renal = system: UO-31 renal
CAKI-1 renal = system: CAKI-1 renal
MDA-MB-435 = system: MDA-MB-435
UACC-62 melanoma = system: UACC-62 melanoma
SF-539 CNS = system: SF-539 CNS

SMILES | TGI (HCT-15 colon) [µM] | TGI (HT29 colon) [µM] | TGI (HCT-116 colon) [µM] | TGI (786-0 renal) [µM] | TGI (MALME-3M melanoma) [µM] | TGI (UO-31 renal) [µM] | TGI (CAKI-1 renal) [µM] | TGI (MDA-MB-435) [µM] | TGI (UACC-62 melanoma) [µM] | TGI (SF-539 CNS) [µM]
CCOC(=O)C(NC(=O)CC)(Nc1ccc(S(=O)(=O)Nc2nc(C)cc(C)n2)cc1)C(F)(F)F (stereo not given) | > 100 | > 100 | > 100 | > 100 | > 100 | > 100 | > 100 | > 100 | > 100 | > 100
N#Cc1c(Nc2nc3ccccc3s2)c2ccccc2n2c1nc1ccccc12 | > 100 | > 100 | > 100 | > 100 | > 100 | > 100 | > 100 | > 100 | > 100 | > 100
COc1cc2c(cc1C)NC(=O)/C2=C\c1ccncc1 | 16 | > 100 | 5.09 | 18.8 | 32.1 | 18.3 | 16.5 | 20 | 21.1 | 8.45
CCOC(=O)c1c(N2CCOCC2)[nH]c(=O)c(C(c2cccs2)c2c(O)c(C(=O)OCC)c(N3CCOCC3)[nH]c2=O)c1O | > 100 | > 100 | > 100 | > 100 | > 100 | > 100 | > 100 | > 100 | > 100 | > 100
S=C(N/N=C\c1ccccn1)N(Cc1ccccn1)Cc1ccccn1 | > 43.2 | 16.2 | 16.5 | 13.3 | 16.9 | 7.87 | 14.6 | 41.8 | > 23.1 | > 100
CN(CCc1ccc(Cl)c(Cl)c1)CCN(C)CCN1CCCC1 | 38.4 | 12.5 | 18.7 | 21.9 | 15 | 17.2 | 32.1 | 4.5 | 3.74 | 17.5
CCOC(=O)/C(C#N)=C(/NNc1ccccc1)c1ccncc1C(=O)O | > 100 | > 100 | > 100 | > 100 | > 100 | > 100 | > 100 | > 100 | > 100 | > 88.3
Cc1cc(O)ccc1C1(c2ccc(F)cc2)OC(=O)c2ccccc21 (stereo not given) | 12.4 | 18 | 12.6 | 22.2 | 26.8 | 16.1 | 15.3 | 26.9 | 16.9 | 9.29

Source: PubChem BioAssay (NCI)
